Results on four substances are retold here after US20060172943A1, “Restoring vascular function” (priority 2003, published 2006).

Ends that are not written are not given here.

Assay [1] deals with rat cardiac microvascular endothelial cells. The assay can be described thus: In vitro cell adhesion and spreading analysis on coated substrates. It counts as cell-based. The settings on record: for cells that failed to attach to the substrate: within 10 min of plating. The protocol:
(§1) Rat cardiac microvascular endothelial cells were isolated from 3-month-old rats according to the method of Nishida et al. (1995). Cells were cultured on either collagen-coated or tenascin-C-coated (10 μg/ml) 8-well chamber slides (Nunc Nalge International, Illinois.) in minimal media (5% fetal bovine serum, 1% penicillin, 1% streptomycin in Dulbecco's modified Eagle's medium) for up to 48 hours and photographed daily. […] For migration analysis, cells were covered with 300 μl of collagen gel (Chemicon, California) after 3 h of culture on 10 μg/ml collagen or tenascin-C. The gel was allowed to polymerize for 1 hour at 37° C. and 200 μl of minimal media containing VEGF or PDGF (5 ng/ml) or no growth factor was added to the wells. Cells were incubated for up to 48 h, and analyzed for peak migration rates using an inverted microscope (Nikon, Japan): migratory distance of the 5 cells that had migrated furthest through the Z-axis of the gel was determined using the Z-plane focus knob of the microscope. Each experiment was repeated 4 times.
The role of tenascin-C in the regulation of cardiac angiogenesis, endothelial cell phenotype and behavior was further analyzed by observing whether tenascin-C influenced cell adhesion. Cardiac endothelial cells were isolated from young hearts and cultured on either tenascin-C or collagen at a concentration of 10 μg/ml. […] Thus, it appeared that tenascin-C has a short-term anti-adhesive effect on cardiac endothelial cells. […] After 3 h of culture, 99% of cells were attached to the collagen substrate, while approximately 10% of cells on tenascin-C still fail to adhere in this time. Thus, tenascin-C can mediate endothelial cell attachment but, at least within the first few hours of endothelial cell binding to tenascin-C, this attachment is weak and cells maintain a rounded phenotype.
The time period and substrate concentration effects upon cell attachment were further examined by plating rat microvascular endothelial cells on various concentrations (1 μg/ml, 10 μg/ml and 100 μg/ml) of collagen and tenascin-C and observing the attachment of cells to these substrates. As shown in FIGS. 6A-C, within 3 hr, cells on collagen were well attached and beginning to spread into a monolayer. In contrast, cells plated on tenascin-C for 3 hr remained rounded, especially when higher concentrations of tenascin-C were used (FIGS. 6D-F).

The test system is the same in assay [2]. Description: Three-dimensional migration assay through collagen gel. It counts as cell-based. The settings on record: cells cultured 3 h on substrate 10 μg/ml, 48 hours; for increase of peak migration distance in response to PDGF compared to absence of growth factors: PDGF 5 ng/ml; for increase of peak migration distance in response to VEGF compared to absence of growth factors: VEGF 5 ng/ml. The protocol: as §1
A three-dimensional assay system was developed in which cardiac endothelial cells were cultured on either collagen or tenascin-C for 3 h, and then migration through a collagen gel was analyzed in response to PDGF, VEGF, or the absence of angiogenic growth factors (FIGS. 8A, B). After 48 hours, peak migration distances through the Z-axis of the gel were determined (FIG. 8C).

Assay [3] has as its system cardiac vasculature of young (3-month-old) and old (18-month-old) murine hearts. Description: In vivo phage binding in heart after tail vein injection, quantified by phage titering. The settings on record: individual tail vein injection; 3-month-old vs 18-month-old mice; titers of phage eluted from hearts. On the procedure: To identify young-specific bone marrow-homing phage, a phage library encoding a cyclically constrained seven amino acid variable region (New England Biolabs, Massachusetts) was injected into young (3 month) and old (18-month) adult mice, using methods described in Cai, D., et al., Age-associated impairment in TNF-alpha cardioprotection from myocardial infarction. Am J Physiol Heart Circ Physiol, 2003. 285(2): p. H463-69. Phage clones were selected for sequencing from phage pools eluted from young rather than old bone marrow. To confirm that these clones preferentially bound to young bone marrow, the clones were injected individually into young and old mice and young bone marrow-specific clones were re-selected from the young mouse's bone marrow. Young bone marrow-homing phage were then analyzed for cardiac binding to identify phage epitopes that preferentially bound to young cardiac vasculature as well as young bone marrow. The number of bound phage recovered per mg of tissue was quantified by serial dilution titration. The age-associated differential cardiac binding capacity of a candidate phage clone, ψR3Y32 was confirmed using methods described in Cai et al. (2004).
Individual injection of ψR3Y32 confirmed 10-fold higher levels of ψR3Y32 binding in young compared to old murine hearts (FIG. 3A).

The target in assay [4] is T1, tenascin-C in the cardiac vasculature (Mus musculus, UniProt Q80YX1).
T1 construct: from tissue; host or cells: heart (cardiac vasculature) of phage-injected animals, paraffin sections
T1 sequence (Q80YX1 23-2110): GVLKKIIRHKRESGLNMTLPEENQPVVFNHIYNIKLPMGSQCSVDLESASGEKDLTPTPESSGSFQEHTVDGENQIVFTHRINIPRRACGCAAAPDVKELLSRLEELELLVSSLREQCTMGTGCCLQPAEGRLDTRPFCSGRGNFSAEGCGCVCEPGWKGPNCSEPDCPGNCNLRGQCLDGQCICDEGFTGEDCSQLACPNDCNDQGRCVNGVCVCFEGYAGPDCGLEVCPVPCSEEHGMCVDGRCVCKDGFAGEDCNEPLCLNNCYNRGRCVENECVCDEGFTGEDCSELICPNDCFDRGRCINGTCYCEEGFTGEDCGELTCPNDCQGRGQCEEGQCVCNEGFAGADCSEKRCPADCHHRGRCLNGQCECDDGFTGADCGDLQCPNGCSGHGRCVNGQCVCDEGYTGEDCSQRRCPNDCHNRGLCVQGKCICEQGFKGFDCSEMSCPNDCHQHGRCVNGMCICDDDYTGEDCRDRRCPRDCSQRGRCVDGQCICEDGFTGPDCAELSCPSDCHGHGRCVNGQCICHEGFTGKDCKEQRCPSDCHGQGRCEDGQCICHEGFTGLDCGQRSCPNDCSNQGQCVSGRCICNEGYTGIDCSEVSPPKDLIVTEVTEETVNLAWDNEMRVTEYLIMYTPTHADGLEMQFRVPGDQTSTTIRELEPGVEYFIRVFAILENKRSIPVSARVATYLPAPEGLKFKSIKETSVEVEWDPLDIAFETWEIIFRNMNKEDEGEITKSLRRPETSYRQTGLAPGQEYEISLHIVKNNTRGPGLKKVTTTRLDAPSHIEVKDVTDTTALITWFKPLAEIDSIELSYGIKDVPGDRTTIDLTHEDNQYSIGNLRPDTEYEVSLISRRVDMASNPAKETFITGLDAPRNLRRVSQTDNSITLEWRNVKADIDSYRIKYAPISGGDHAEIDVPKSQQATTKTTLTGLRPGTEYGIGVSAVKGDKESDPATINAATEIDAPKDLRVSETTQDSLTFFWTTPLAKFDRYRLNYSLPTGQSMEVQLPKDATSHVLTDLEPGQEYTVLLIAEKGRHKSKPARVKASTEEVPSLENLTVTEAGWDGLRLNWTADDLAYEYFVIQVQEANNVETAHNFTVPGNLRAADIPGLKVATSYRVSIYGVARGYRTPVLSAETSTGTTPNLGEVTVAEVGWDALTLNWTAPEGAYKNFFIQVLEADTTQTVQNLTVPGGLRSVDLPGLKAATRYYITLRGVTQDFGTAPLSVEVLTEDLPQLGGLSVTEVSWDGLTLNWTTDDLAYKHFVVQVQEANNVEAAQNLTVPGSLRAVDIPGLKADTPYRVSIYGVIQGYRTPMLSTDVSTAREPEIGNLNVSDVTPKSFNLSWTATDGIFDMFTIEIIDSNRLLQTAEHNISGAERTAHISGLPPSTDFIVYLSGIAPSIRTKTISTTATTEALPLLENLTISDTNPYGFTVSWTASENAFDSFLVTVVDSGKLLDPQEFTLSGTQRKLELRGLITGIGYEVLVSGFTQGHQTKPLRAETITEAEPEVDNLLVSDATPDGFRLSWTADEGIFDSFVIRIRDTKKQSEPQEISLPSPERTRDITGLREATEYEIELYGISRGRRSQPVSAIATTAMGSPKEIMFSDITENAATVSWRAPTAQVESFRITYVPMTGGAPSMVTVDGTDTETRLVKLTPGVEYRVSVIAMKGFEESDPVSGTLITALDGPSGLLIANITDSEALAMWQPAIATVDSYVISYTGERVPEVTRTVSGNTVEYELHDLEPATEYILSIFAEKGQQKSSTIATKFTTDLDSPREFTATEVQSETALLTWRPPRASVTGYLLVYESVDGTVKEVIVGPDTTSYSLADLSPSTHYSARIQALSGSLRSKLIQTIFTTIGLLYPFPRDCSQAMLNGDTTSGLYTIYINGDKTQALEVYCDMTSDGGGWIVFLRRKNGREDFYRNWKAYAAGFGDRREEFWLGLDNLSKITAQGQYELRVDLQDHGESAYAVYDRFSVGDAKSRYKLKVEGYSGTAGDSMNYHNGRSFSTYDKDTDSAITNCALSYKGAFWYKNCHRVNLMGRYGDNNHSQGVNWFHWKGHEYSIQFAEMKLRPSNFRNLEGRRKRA
Description: Immunostaining of heart sections for phage coat protein pIII and tenascin-C. The settings on record: rodent heart after phage injection. In kind it is in vivo. The source says:
For immunohistochemical analysis of phage binding, hearts were harvested after phage injection, and then prepared for paraffin embedding and sectioning using standard histochemical procedures.
(§2) The following primary antibodies were used for immunostaining histological sections: anti-tenascin-C (Santa Cruz Biotechnology, California), anti-pIII (Mobitec, Germany), anti-β-galactosidase (Biogenesis, U.K.), anti-PDGFRα (Santa Cruz Biotechnology). For consistency, sections for all analyses were selected from the mid-papillary region of the ventricles. Primary antibodies were labeled with biotin and visualized with Texas Red- and FITC-conjugated avidin (Vector Labs, California).
To investigate whether tenascin is an in vivo receptor for ψR3Y32, expression of tenascin-C as well as its relationship to phage binding sites was analyzed in the rodent heart. […] Co-staining for tenascin-C and the nuclear marker 4,6-diamidino-2-phenylindole (DAPI) further confirmed that tenascin-C is expressed on the luminal surface of cardiac vessels, and therefore may act at sites of endothelial cell/EPC cell incorporation during vascular remodeling (FIG. 3D).

Assay [5] has as its system tenascin-C mRNA expression in cultured rat cardiac endothelial cells. The assay can be described thus: PCR analysis of tenascin-C mRNA expression in cultured cardiac endothelial cells treated with PDGF. It counts as cell-based. The settings on record: data not shown. The protocol: Tenascin-C expression was induced by PDGF during in vitro studies in rat aortic smooth muscle cells. […] Control cells received no PDGF. Cardiac endothelial cells from young (4-month old) and old (24-month old) rat hearts were tested. The number of treated and non-treated cultures tested was two (n=2 per group). Tenascin-C expression was higher in PDGF-treated cells and in younger (4 month old) as opposed to older ([…]) cultures of rat cardiac endothelial cells.

Assay [6] relates to tenascin-C expression in the heart. The assay can be described thus: Immunohistochemical analysis of heart sections after intramyocardial PDGF injection. Particulars: rats, 24 h, immunohistochemistry, data not shown. It counts as in vivo, rat. The protocol:
Cardiac injections of PDGF ligand were performed as described in Xaymardan et al., Senescent impairment in synergistic cytokine pathways that provide rapid cardioprotection in the rat heart. J Exp Med, 199(6): p. 797-804 (2004). Briefly, rats were anesthetized, an intercostal thoracotomy was performed and then the rats received intramyocardial injections of PDGF-AB (100 ng/50 μl PBS) at the anterior wall of the myocardium (two 25 μl injections, 2 mm apart) through a 28 gauge needle. The chest wall was closed, the lungs inflated and the rats were extubated. Twenty-four hours later, the rats were sacrificed and the hearts were harvested for paraffin embedding and sectioning, using standard techniques.
as §2

The mark [7] stands for this setting: 3 hours of incubation, substrate 10 μg/ml.
Setting [8] is: after 3 h of culture, substrate 10 μg/ml.

On to “tenascin-C: hexameric extracellular matrix glycoprotein, used as coating substrate for cardiac endothelial cells”, for which the “cell attachment and morphology” value in assay [1] (setting [7]) was “rounded and poorly attached”; in assay [1] (24 hours of culture, substrate 10 μg/ml), “well attached and spread and formed a typical endothelial monolayer”; in assay [1] (24 hr, substrate 100 μg/ml), “formed multi-layered cell clusters”. In addition, the “cells that fail to adhere” value in assay [1] (setting [8]) was “approximately 10%”. Also, in assay [1] (substrate 10 μg/ml), the “cells that failed to attach to the substrate” value stood at 86.9%. In addition, the “increase of peak migration distance in response to PDGF compared to absence of growth factors” value in assay [2] is recorded as 64.3%. For the same substance, the “increase of peak migration distance in response to VEGF compared to absence of growth factors” value in assay [2] came out at 91.6%.

Take “ψR3Y32: phage clone from in vivo biopanning displaying a cyclically constrained peptide with core motif STISHN (SEQ ID NO:1), homologous to alpha-8 integrin (also: displayed on phage, cyclically constrained; listed as Homo sapiens)”: in assay [3], the “levels of phage binding in young compared to old murine hearts” value was determined as 10 fold. For the same substance, the “binding of phage to vessels within the heart (pIII immunostaining)” value in assay [4] was “confirmed the binding of ψR3Y32 to vessels within the heart”.

“PDGF-AB: platelet derived growth factor AB heterodimer ligand”: the “time of peak upregulation of tenascin-C mRNA” value in assay [5] (RT-PCR, cardiac endothelial cells cultured with exogenous PDGF ligand) stood at 6 h. Further, the “tenascin-C mRNA expression in cardiac endothelial cells after treatment” value in assay [5] (real-time PCR, cultured rat cardiac endothelial cells, n=2 per group) was “increased”. In addition, the “tenascin-C expression in heart sections after treatment” value in assay [6] is listed as “increases tenascin-C expression”.

For the substance collagen [reference compound], the “cell attachment and morphology” value in assay [1] (setting [7]) was “attached well and were beginning to spread”. The “cells attached to the substrate” value in assay [1] (setting [8]) is recorded as 99%. Besides, the “cells that failed to attach to the substrate” value in assay [1] (substrate 10 μg/ml) is given as 16.9%. In assay [2], the “increase of peak migration distance in response to PDGF compared to absence of growth factors” value came to 51.4% and the “increase of peak migration distance in response to VEGF compared to absence of growth factors” value was 63.3%.
